Patent publication US20240342292A1, “Compounds for the Degradation of EGFR Kinase” (BeiGene Switzerland GmbH, priority 2021, published 2024)

Legend:
L858R/T790M/C797S EGFR = biological target: T1, L858R/T790M/C797S EGFR (Homo sapiens, UniProt P00533, C797S/L858R/T790M); assay: EGFR degradation HTRF assay in H1975-clone #25 (LTC) cells; format: cell-based; conditions: 16h treatment; for DC50: H1975 # 25-LTC (L858R/T790M/C797S), HTRF; for Dmax: NCI-H1975, H1975 # 25-LTC (L858R/T790M/C797S), maximum percentage of degradation
T1 construct: expressed in transfected cells; host or cells: H1975 clone #25 (lentiviral over-expression, endogenous EGFR knocked out by sgRNA)
Outline: (§1)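 H1975 clones stably overexpressing mutant EGFR by lentivirus, with endogenous EGFR knocked out by sgRNA and homozygosity confirmed by sequencing, were treated 16 h at 37 °C with compounds in 0.2% DMSO medium, 8 doses from 10 uM in 5-fold dilution. Lysates were read by HTRF (665/620 nm); DC50 came from a four-parameter fit.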

Del19/T790M/C797S EGFR = assay: EGFR degradation HTRF assay in H1975-clone #28 (DTC) cells; format: cell-based; conditions: H1975 # 28 DTC (Del19/T790M/C797S), 16h treatment; for DC50: HTRF; for Dmax (%): maximum percentage of degradation
Outline: as §1

T1 sequence (P00533 25-1210 T790M/C797S/L858R): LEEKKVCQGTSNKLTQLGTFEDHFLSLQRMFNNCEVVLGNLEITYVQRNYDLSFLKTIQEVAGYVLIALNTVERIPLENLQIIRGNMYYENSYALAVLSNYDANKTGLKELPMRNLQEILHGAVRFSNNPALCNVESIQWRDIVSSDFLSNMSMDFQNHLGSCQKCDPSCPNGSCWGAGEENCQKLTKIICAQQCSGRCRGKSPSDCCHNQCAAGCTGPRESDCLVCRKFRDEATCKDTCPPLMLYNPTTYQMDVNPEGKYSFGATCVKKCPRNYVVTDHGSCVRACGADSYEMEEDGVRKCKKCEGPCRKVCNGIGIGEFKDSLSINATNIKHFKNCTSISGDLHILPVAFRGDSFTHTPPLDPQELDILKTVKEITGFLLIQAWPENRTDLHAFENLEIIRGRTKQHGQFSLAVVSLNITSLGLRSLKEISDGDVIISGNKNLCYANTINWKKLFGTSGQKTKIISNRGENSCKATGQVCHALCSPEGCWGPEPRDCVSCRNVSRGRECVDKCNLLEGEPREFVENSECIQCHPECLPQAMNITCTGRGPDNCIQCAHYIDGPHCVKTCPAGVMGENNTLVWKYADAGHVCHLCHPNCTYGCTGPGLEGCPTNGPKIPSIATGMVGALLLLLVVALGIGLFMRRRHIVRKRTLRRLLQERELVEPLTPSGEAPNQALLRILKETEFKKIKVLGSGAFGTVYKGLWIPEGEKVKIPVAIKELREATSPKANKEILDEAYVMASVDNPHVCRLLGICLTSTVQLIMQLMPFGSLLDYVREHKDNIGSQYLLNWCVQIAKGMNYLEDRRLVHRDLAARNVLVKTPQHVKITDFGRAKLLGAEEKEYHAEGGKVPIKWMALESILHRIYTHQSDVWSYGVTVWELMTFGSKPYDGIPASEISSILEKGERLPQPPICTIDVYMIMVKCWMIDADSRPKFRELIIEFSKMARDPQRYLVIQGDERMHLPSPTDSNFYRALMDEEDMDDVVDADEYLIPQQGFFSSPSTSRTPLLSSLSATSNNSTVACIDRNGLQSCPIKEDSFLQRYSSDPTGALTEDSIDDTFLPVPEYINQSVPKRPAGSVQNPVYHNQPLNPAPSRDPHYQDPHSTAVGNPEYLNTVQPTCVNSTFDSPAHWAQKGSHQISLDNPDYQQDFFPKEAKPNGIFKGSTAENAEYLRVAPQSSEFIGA

Row | DC50 (L858R/T790M/C797S EGFR) | Dmax (L858R/T790M/C797S EGFR) | DC50 (Del19/T790M/C797S EGFR) | SMILES | Dmax (%) (Del19/T790M/C797S EGFR)
1 | 0.429 nM | 92.5% | 0.614 nM | Cc1cc2cc(n1)-c1cnn(C)c1OCCC[C@@H](C)CN1/C(=N/C2=O)Nc2ccc(C(=O)N[C@H]3CCN(CCc4cc(F)c([C@H]5CCC(=O)NC5=O)c(F)c4)[C@@H](C)C3)cc21 [Example 270, (R,E)-N—((2S,4S)-1-(4-((R)-2,6-dioxopiperidin-3-yl)-3,5-difluorophenethyl)-2-methylpiperidin-4-yl)-1^1,2^6,7-trimethyl-3-oxo-5^2,5^3-dihydro-1^1H,5^1H-11-oxa-4-aza-5(2,1)-benzo[d]imidazola-2(2,4)-pyridina-1(4,5)-pyrazolacycloundecaphane-5^6-carboxamide] | 81.16%
2 | 0.557 nM | 81.2% | 1.15 nM | Cc1cc2cc(n1)-c1cnn(C)c1OCCC[C@@H](C)CN1/C(=N/C2=O)Nc2ccc(C(=O)N[C@H](C)C3CCN(CCc4cc(F)c([C@H]5CCC(=O)NC5=O)c(F)c4)CC3)cc21 [Example 271, (R,E)-N—((R)-1-(1-(4-((R)-2,6-dioxopiperidin-3-yl)-3,5-difluorophenethyl)piperidin-4-yl)ethyl)-1^1,2^6,7-trimethyl-3-oxo-5^2,5^3-dihydro-1^1H,5^1H-11-oxa-4-aza-5(2,1)-benzo[d]imidazola-2(2,4)-pyridina-1(4,5)-pyrazolacycloundecaphane-5^6-carboxamide] | 70.36%
3 | 1.36 nM | 87.2% | 1.52 nM | Cc1cc2cc(n1)-c1cnn(C)c1OCCC[C@@H](C)CN1/C(=N/C2=O)Nc2ccc(C(=O)N(C)[C@@H](C)C3CCN(CCc4cc(F)c(C5CCC(=O)NC5=O)c(F)c4)CC3)cc21 (stereo partly drawn) [Example 272, (R,E)-N—((S)-1-(1-(4-((R)-2,6-dioxopiperidin-3-yl)-3,5-difluorophenethyl)piperidin-4-yl)ethyl)-N,1,2^6,7-tetramethyl-3-oxo-5^2,5^3-dihydro-1^1H,5^1H-11-oxa-4-aza-5(2,1)-benzo[d]imidazola-2(2,4)-pyridina-1(4,5)-pyrazolacycloundecaphane-5^6-carboxamide] | 76.03%
4 | 4.58 nM | 88.8% | 0.489 nM | Cc1cc2cc(n1)-c1cnn(C)c1OCCC[C@@H](C)CN1/C(=N/C2=O)Nc2ccc(C(=O)N(C)C[C@@H]3CCN(CCc4cc(F)c([C@H]5CCC(=O)NC5=O)c(F)c4)CC3(F)F)cc21 [Example 273, (R,E)-N—(((S)-1-(4-((R)-2,6-dioxopiperidin-3-yl)-3,5-difluorophenethyl)-3,3-difluoropiperidin-4-yl)methyl)-N,1′,2,7-tetramethyl-3-oxo-5^2,5^3-dihydro-1^1H,5^1H-11-oxa-4-aza-5(2,1)-benzo[d]imidazola-2(2,4)-pyridina-1(4,5)-pyrazolacycloundecaphane-5^6-carboxamide] | 66.66%
5 | 1.63 nM | 69.2% | 0.691 nM | Cc1cc2cc(n1)-c1cnn(C)c1OCCC[C@@H](C)CN1/C(=N/C2=O)Nc2ccc(C(=O)N(C)C[C@H]3CCN(CCc4cc(F)c([C@H]5CCC(=O)NC5=O)c(F)c4)CC3(F)F)cc21 [Example 274, (R,E)-N—(((R)-1-(4-((R)-2,6-dioxopiperidin-3-yl)-3,5-difluorophenethyl)-3,3-difluoropiperidin-4-yl)methyl)-N,1^1,2^6,7-tetramethyl-3-oxo-5^2,5^3-dihydro-1^1H,5^1H-11-oxa-4-aza-5(2,1)-benzo[d]imidazola-2(2,4)-pyridina-1(4,5)-pyrazolacycloundecaphane-5^6-carboxamide] | 48.56%
6 | 1.01 nM | 88.9% | 0.798 nM | Cc1cc2cc(n1)-c1cnn(C)c1OCCC[C@@H](C)CN1/C(=N/C2=O)Nc2ccc(C(=O)N(C)CC(F)(F)C3CCN(CCc4cc(F)c([C@H]5CCC(=O)NC5=O)c(F)c4)CC3)cc21 [Example 275, (R,E)-N-(2-(1-(4-((R)-2,6-dioxopiperidin-3-yl)-3,5-difluorophenethyl)piperidin-4-yl)-2,2-difluoroethyl)-N,1^1,2^6,7-tetramethyl-3-oxo-5^2,5^3-dihydro-1^1H,5^1H-11-oxa-4-aza-5(2,1)-benzo[d]imidazola-2(2,4)-pyridina-1(4,5)-pyrazolacycloundecaphane-5^6-carboxamide] | 78.92%
7 | 0.592 nM | 88% | 1.74 nM | Cc1cc2cc(n1)-c1cnn(C)c1OCCC[C@@H](C)CN1/C(=N/C2=O)Nc2ccc(C(=O)N(C)C[C@H]3CCCN(CCc4cc(F)c([C@H]5CCC(=O)NC5=O)c(F)c4)C3)cc21 [Example 276, (R,E)-N—(((S)-1-(4-((R)-2,6-dioxopiperidin-3-yl)-3,5-difluorophenethyl)piperidin-3-yl)methyl)-N,1^1, 2^6,7-tetramethyl-3-oxo-5^2,5^3-dihydro-1^1H,5^1H-11-oxa-4-aza-5(2,1)-benzo[d]imidazola-2(2,4)-pyridina-1(4,5)-pyrazolacycloundecaphane-5^6-carboxamide] | 71.19%
8 | 0.804 nM | 74.2% | 0.567 nM | Cc1cc2cc(n1)-c1cnn(C)c1OCCC[C@@H](C)CN1/C(=N/C2=O)Nc2ccc(C(=O)N(C)C3CCC(N(C)CCc4cc(F)c([C@H]5CCC(=O)NC5=O)c(F)c4)CC3)cc21 (stereo partly drawn) [Example 278, (R,E)-N-(4-((4-((R)-2,6-dioxopiperidin-3-yl)-3,5-difluorophenethyl)(methyl)amino)cyclohexyl)-N,1^1,2^6,7-tetramethyl-3-oxo-5^2,5^3-dihydro-1^1H,5^1H-11-oxa-4-aza-5(2,1)-benzo[d]imidazola-2(2,4)-pyridina-1(4,5)-pyrazolacycloundecaphane-5^6-carboxamide] | 52.21%
9 | 1.33 nM | 83% | 0.75 nM | Cc1cc2cc(n1)-c1cnn(C)c1OCCC[C@@H](C)CN1/C(=N/C2=O)Nc2ccc(C(=O)N(C)CCC3CCN(c4cc(F)c([C@H]5CCC(=O)NC5=O)c(F)c4)CC3)cc21 [Example 279, (R,E)-N-(2-(1-(4-((R)-2,6-dioxopiperidin-3-yl)-3,5-difluorophenyl)piperidin-4-yl)ethyl)-N,1^1,2^6,7-tetramethyl-3-oxo-5^2,5^3-dihydro-1^1H,5^1H-11-oxa-4-aza-5(2,1)-benzo[d]imidazola-2(2,4)-pyridina-1(4,5)-pyrazolacycloundecaphane-5^6-carboxamide] | 82.08%
10 | 0.44 nM | 88.5% | 0.657 nM | Cc1cc2cc(n1)-c1cnn(C)c1OCCC[C@@H](C)CN1/C(=N/C2=O)Nc2ccc(C(=O)N(C)CCN3CCN(c4cc(F)c([C@H]5CCC(=O)NC5=O)c(F)c4)CC3)cc21 [Example 280, (R,E)-N-(2-(4-(4-((R)-2,6-dioxopiperidin-3-yl)-3,5-difluorophenyl)piperazin-1-yl)ethyl)-N,1^1,2^6,7-tetramethyl-3-oxo-5^2,5^3-dihydro-1^1H,5^1H-11-oxa-4-aza-5(2,1)-benzo[d]imidazola-2(2,4)-pyridina-1(4,5)-pyrazolacycloundecaphane-5^6-carboxyamide] | 77.24%
